Assay results: patent publication US10723706B2, “Perk inhibitors and uses thereof in treating diseases associated with aggregation-prone proteins” (Ramot at Tel-Aviv University Ltd., priority 2016, dated 2020)
“Also recorded” adds a separate entry of the source.

Key:
STHdhQ111/111 cells = assay: Rescue from UPR-induced cell death (tunicamycin), PI cell cycle FACS, sub-G0/G1 fraction; assay type: cell-based
Method: STHdhQ7/7 and STHdhQ111/111 cells were grown as described in Leitman et al. [PLoS One 2014, 9(3):e90803].
After the indicated treatment times in full medium or in DMEM without serum, cells were incubated with propidium iodide (PI) solution ([…]) and read by flow cytometry as described in Leitman et al. [PLoS One 2014, 9(3):e90803]. Cells in sub-G0/G1 were counted as apoptotic/dead cells.
The activity of the novel inhibitors, compared to A4, in preventing cytotoxicity induced by pathogenic Htt, was then tested. A stable murine striatal cell line expressing full-length polyQ-expanded Htt, STHdhQ^111/111, was used.

cells = assay: Intrinsic cytotoxicity on cells; assay type: cell-based
[1] = system: betaTC-tet pancreatic islet beta-cell line; assay: Toxicity in pancreatic beta cells; assay type: cell-based, mouse
Method: MK-28 toxicity was tested in pancreatic beta cells, the type of cell that is most sensitive when ER stress response pathways are affected. A conditionally transformed mouse pancreatic islet beta-cell line (betaTC-tet), such as described by Efrat [Ann NY Acad Sci 1999, 875:286-293], was used. These cells produce high amounts of insulin, resulting in a high protein load in the ER, making them very sensitive to ER stress and other stimuli, such as cytokine effects. Compromising any of the UPR branches leads to cytotoxicity in these cells. MK-28 was compared to the ER stressor tunicamycin (Tun).

wild type (WT) mice = assay: Toxicity in wild type mice, continuous subcutaneous dosing by Alzet pump; assay type: in vivo, mouse; conditions: 6 mg/kg for 2 weeks
[2] = Pharmacokinetics and blood brain barrier penetration, LC/MS/MS; assay type: in vivo, mouse; conditions: WT mice, 10 mg/kg IP
Method: FIG. 5 Analysis of Pharmacokinetics (PK) and blood brain barrier (BBB) penetration was done in WT mice using a method based on LC/MS/MS.
Pharmacokinetics (PK) and blood brain barrier (BBB) penetration were analyzed in WT mice.

[3] = Weight evaluation after pump implantation; assay type: in vivo, mouse; conditions: TG and WT mice, 7 weeks after pump implantation, 1 mg/kg for 28 days
Method: For the therapeutic assessment of MK-28 delivery, Alzet pumps model 1004, with a rate of 0.11 μl/hour and 28 days compound delivery were used. Five groups of mice were studied: (1) Transgenic (TG) treated with MK-28, (2) TG without treatment (pumps with vehicle), (3) Wild-type (WT) treated with MK-28, (4) WT without treatment (pumps with vehicle), (5) WT without pumps.
(§1) Alzet pumps were implanted at 4 weeks of age and MK-28 was administered at 1 mg/kg with continuous dosing for 28 days. This concentration is in a typical clinical dose range. The mice's motor function and coordination were tested by Rotarod, and limb clasping, ledge, gait and kyphosis were also tested. Vocalization tests were also performed and survival was assessed. Tests were performed in two independent blind experiments.

R6/2 transgenic mice [4] = assay: Combined motor phenotype (ledge, clasping, gait, kyphosis) in R6/2 mice; assay type: in vivo, mouse
From the text: Hind-limb clasping behavior was scored on a scale from 0 to 3: 0=normal; 1=clasps hind limbs within 30 seconds of being suspended in the air; 2=clasps hind limbs within 5 seconds but recovers quickly when released after 30 seconds; 3=clasps hind limbs within 5 seconds and has difficulty recovering when released after 30 seconds.
The ledge test is a direct measure of coordination. Mice were lifted from the cage and placed on the cage's ledge. Mice will typically walk along the ledge and attempt to descend back into the cage. Walking along the ledge without losing its balance is assigned a score of 0. If the mouse loses its footing while walking along the ledge, it receives a score of 1. […] If it falls off the ledge, or nearly so, while walking or attempting to lower itself, or shakes and refuses to move at all despite encouragement, it receives a score of 3.
Gait is a measure of coordination and muscle function. […]
In parallel to the Rotarod analysis motor function and disease severity were evaluated using a simple composite phenotype that includes the combined analysis of hind limb clasping, ledge walk, gait and kyphosis [Guyenet et al., J Vis Exp 2010, (39):1787]. This test has the ability to effectively discriminate between affected and non-affected individuals, while also quantifying the temporal progression of neurodegenerative disease phenotypes such as HD.

R6/2 transgenic mice [5] = assay: Survival of R6/2 mice; assay type: in vivo, mouse
Method: Animals were treated as described in FIGS. 7-9. Transgenic mice receiving MK-28 (blue) or vehicle (red) were analyzed for mice survival (n=13/group). Gehan-Breslow-Wilcoxon Test for comparisons of Kaplan-Meier survival curves indicated a significant increase in the survival of MK-28 treated mice compared to untreated littermates (median survival 97 and 89 days, respectively, p=0.0469). Ratio 1.887, 95% CI of ratio 0.7726 to 4.611.
as §1

SMILES: CN(/N=C\c1ccc(O)c(O)c1)c1nc(-c2ccccc2)cc(-c2ccccc2)n1 [Compound 3, 2-{N-methyl-N′-(3,4-dihydroxybenzylidene)hydrazinyl}-4,6-diphenylpyrimidine]
- rescue from UPR-induced cell death (cytotoxicity) (STHdhQ111/111 cells; Tun for 48 hours): significantly more potent than A4
- fold lower IC50 than A4 for inhibition of cytotoxicity (STHdhQ111/111 cells; additional ER stress caused by tunicamycin): > 3 fold
- intrinsic cytotoxicity on cells (cells): neither MPGL1 nor MK-28 exhibited intrinsic cytotoxicity
- toxicity in pancreatic beta cells [1]: very low toxicity
- toxic effects in WT mice (wild type (WT) mice): no toxic effects were observed
- BBB penetration, peak brain concentration ([2]; brain): 57 ng/mL
- T1/2 in brain ([2]; brain): 80 min
- time of peak brain concentration ([2]; brain): 40 min
- T1/2 in plasma ([2]; plasma): 30 min
- peak plasma concentration ([2]; plasma): 105 ng/mL
- time of peak plasma concentration ([2]; plasma): 40 min
- Kp at 40 minutes ([2]; mouse, brain, read-out: BBB penetration peak as percent of the concentration in plasma): > 0.5
- weight versus vehicle [3]: no significant differences
- combined phenotype score of TG mice versus untreated TG (R6/2 transgenic mice [4]; R6/2 TG mice, from week 6 after pump implantation, p<0.05, listed as MK-28): lower scores; also recorded: significant improvement
- combined phenotype of WT mice (R6/2 transgenic mice [4]; WT mice, p>0.05): no detrimental effect
- delay of death initiation versus vehicle (R6/2 transgenic mice [5]; R6/2 TG mice): ~10 days
- increase in median survival versus untreated TG (R6/2 transgenic mice [5]; R6/2 TG mice): 8 days
- median survival (R6/2 transgenic mice [5]; R6/2 TG mice treated age weeks 4 to 8, n=13/group, p=0.0469): 97 days
- Ratio, comparison of Kaplan-Meier survival curves (R6/2 transgenic mice [5]; R6/2 TG mice, 95% CI of ratio 0.7726 to 4.611): 1.887
